# What was measured:
# SMNDC1 Tudor domain = biological target: T1, SMNDC1 Tudor domain (Homo sapiens, UniProt O75940); assay: AlphaScreen, SMNDC1 Tudor domain / sDMA-peptide interaction
# T1 sequence (O75940 65-128): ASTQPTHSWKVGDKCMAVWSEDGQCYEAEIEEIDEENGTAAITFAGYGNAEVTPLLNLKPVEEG
# Description: To pharmacologically perturb SMNDC1 function, we set out to identify small molecule inhibitors of SMNDC1’s Tudor domain based on perturbing its interaction with a dimethylarginine peptide. To establish an AlphaScreen[50], we coupled donor beads to purified SMNDC1’s (or SMN’s) Tudor domain via a His-Tag and acceptor beads to a biotinylated peptide corresponding to the C-terminal region of the Small nuclear ribonucleoprotein Sm D3 containing four sDMAs (Fig. 4a). […] To identify ideal concentrations for screening, we performed a cross-titration of Tudor domains and binding peptides (Supplementary Fig. 3b).
# The AlphaScreen was conducted in 20 mM sodium phosphate pH 6.5, 50 mM NaCl, Tween 0.01%, BSA 0.1%. Protein concentration was optimized for each batch of purified protein. Optimal concentration was chosen at the lowest concentration with ~80% of maximum signal. […] In the first step, 10 µl of the protein solution containing either SMNDC1’s or SMN’s Tudor domain coupled to a 6xHis-Tag were distributed to 384-well plates pre-spotted with compounds and controls, shaken and incubated for 30 min at RT. Afterwards, 10 µl of peptide solution was added to each well and incubated for 1 h at RT. Finally, 5 µl of a solution containing both Streptavidin Donor and nickel chelate (Ni-NTA) Acceptor beads was added and again incubated for 1 h at RT.
# Category Parameter Description
# Assay Type of assay In vitro AlphaScreen / luminescence proximity
# Target Tudor domain of SMNDC1
# Primary measurement Decrease in luminescence signal reflecting
# disruption of heterodimeric complex between
# SMNDC1-Tudor domain and a peptide
# corresponding to the C-terminus of Small nuclear
# ribonucleoprotein Sm D3 containing 4 sDMAs
# Key reagents AlphaScreen no-wash assay kit containing
# Streptavidin Donor beads and nickel chelate (Ni-
# NTA) AlphaScreen Acceptor beads (PerkinElmer
# Assay protocol Described in Methods section
# Screen Format PerkinElmer OptiPlate-384 well plate
# Concentration(s) tested Typically 10 μM (0.1% DMSO)
# Plate controls 32 positive control wells (Mitoxantrone, quencher),
# 32 negative control wells (DMSO)
# Reagent/ compound dispensing system Echo 520 Liquid Handler Multidrop™ Combi
# Normalization Raw signal was normalized plate-specifically by
# correcting row and column-specific mean signals to
# the mean signal of the entire plate, each after
# removing the highest and lowest 25% of values. Raw
# signal was then converted to percent of control
# signal, but linear regression to plate-specific mean
# signal of DMSO wells (set to 100 percent of control)
# and positive control wells (set to 0% of control), after
# outlier removal using a Grubbs test.
# unspecific quenchers), Secondary screen (with
# [1] = test system: SMNDC1-GFP intron 2-3, SRRM2-RFP intron 9-10, αTC1-clone; assay: Fluorescence recovery after photobleaching (FRAP); assay type: cell-based, mouse; conditions: 50 µM, 15-45 min
# Description: For FRAP experiments, cells harboring intron-tags in SMNDC1 and SRRM2 were seeded 24 h before imaging on a Zeiss LSM 980 microscope. 15 min before imaging, medium was changed to medium without phenol red containing DRAQ5^TM 1:1000 to reduce autofluorescence and to mark nuclei. If cells were treated with compounds, these were added in the same step. After identifying a suitable cell, bleach and reference regions were defined. After taking one reference image, the bleach region was bleached 15 times for 5 milliseconds with 100% laser power at 488 nm for GFP and with 20% laser power at 546 nm for RFP. After bleaching, a new image was taken approximately every 3 s until 150 s after bleaching. Fluorescence intensities were quantified in the bleach and reference regions for every image and normalized to the intensity before bleaching.
# [2] = Solubility in aqueous, buffered solution for NMR; assay type: physicochemical
# Description: All NMR acquisition was performed in 3 mm tubes at 25 °C. […] All titration measurements were performed in 20 mM sodium phosphate buffer pH 6.5, 50 mM NaCl, 4 mM dithiothreitol and 10% (v/v) D2O as deuterium lock. Aqueous, buffered inhibitor stock solutions of maximal 20 mM concentration were prepared and carefully adjusted to pH 6.5. Inhibitor concentration was measured by addition of 100 µM DSS, peak integration and calculating with C=I⋅NDSS⋅CDSS/IDSS⋅N where C, I, N and CDSS, IDSS, NDSS is the concentration, peak intensity, and number of protons of inhibitor and DSS, respectively.
# SMNDC1-GFP αTC1 clones = assay: Live imaging of endogenously tagged SMNDC1-GFP; assay type: cell-based, mouse; conditions: 50 µM, 12–16 h
# Description: (§1) Cell lines with fluorescent tags in the endogenous intron loci of different genes were generated as described in Serebrenik et al., and Reicher et al.[39],[74]. Cells were transiently transfected using Avalanche-Everyday Transfection Reagent with three plasmids in parallel: (1) the donor plasmid containing the artificial intron with splice acceptor and splice donor site, the fluorescent tag GFP or RFP, and a possible correction for the frame of the targeted intron, (2) a pX330 backbone containing Cas9 and the gRNA against the donor plasmid, and (3) a plasmid expressing the gRNA against the target intron (see table below). After 3–5 days, GFP- and/or RFP-positive cells were sorted on a SONY SH800 Cell Sorter to get fluorescent single cell clones. Clones were validated for the correct integration of the intron-tag via comparison of live cell images to publicly available or in-house IF images, genomic DNA PCR amplification of the respective loci, and western blots with antibodies against the target protein and/or the fluorescent tag.
# (§2) Cells were imaged on a PerkinElmer Opera Phenix automated microscope with 500 ms exposure time in either GFP or RFP channel, or on a Zeiss LSM 980 microscope. For condition-independent identification nuclear markers such as Hoechst or DRAQ5^TM were used.
# Images were analyzed using the high-content image acquisition and analysis software Harmony® 4.9 developed by PerkinElmer. First, nuclei were identified in the channel of the nuclear marker (DAPI/ Hoechst/ DRAQ5^TM) (with Method C, Common Threshold 0.75, Area > 10 µm^2). After the identification of nuclei, their corresponding cytoplasm was also identified using the respective nucleic acid marker (with Method A, Individual Threshold 0.15). Even though the highest staining of these nuclear markers is obviously detected in the nucleus they still produce a significant staining of the cytoplasm above background. After defining the respective cell areas, mean intensity in the different channels was measured. Finally, spots were identified with the according “Spots” algorithm (with Method A, Relative Spot Intensity > 0.053, Splitting Sensitivity: 1.0).
# SMN-RFP intron 5-6, αTC1 = assay: Live imaging of SMN-RFP; assay type: cell-based, mouse; conditions: 50 µM, 16 h
# Description: as §1, with “Clones were validated for the correct integration of the intron-tag via comparison of live cell images to publicly available or in-house IF images, genomic DNA PCR amplification of the respective loci, and western blots with antibodies against the target protein and/or the fluorescent tag.” left out
# Images were analyzed using the high-content image acquisition and analysis software Harmony® 4.9 developed by PerkinElmer. […] Even though the highest staining of these nuclear markers is obviously detected in the nucleus they still produce a significant staining of the cytoplasm above background. After defining the respective cell areas, mean intensity in the different channels was measured. […]
# [3] = test system: SRRM2-RFP intron 9-10, αTC1; assay: Live imaging of SRRM2-RFP (nuclear speckles); assay type: cell-based, mouse
# Description: as §1, §2
# Images were analyzed using the high-content image acquisition and analysis software Harmony® 4.9 developed by PerkinElmer. First, nuclei were identified in the channel of the nuclear marker (DAPI/ Hoechst/ DRAQ5^TM) (with Method C, Common Threshold 0.75, Area > 10 µm^2). After the identification of nuclei, their corresponding cytoplasm was also identified using the respective nucleic acid marker (with Method A, Individual Threshold 0.15). Even though the highest staining of these nuclear markers is obviously detected in the nucleus they still produce a significant staining of the cytoplasm above background. After defining the respective cell areas, mean intensity in the different channels was measured. […]
compound,measurement,setting,value
CN(C)S(=O)(=O)c1ccc(C(=O)Nc2nc(-c3ccccn3)cs2)cc1 [compound 1],IC50,SMNDC1 Tudor domain,500 nM
same,recovery after photobleaching of SMNDC1 and SRRM2,[1],lower recovery after photobleaching
same,solubility,[2],insufficient solubility
same,SMNDC1-GFP spots within the nucleus,SMNDC1-GFP αTC1 clones,less spots were detected within the nucleus
same,SMNDC1 within the nucleus (nuclear SMNDC1-GFP),SMNDC1-GFP αTC1 clones,loss of SMNDC1 within the nucleus
same,number of SMN spots in the cytoplasm,"SMN-RFP intron 5-6, αTC1",increased
same,overall intensity of SMN,"SMN-RFP intron 5-6, αTC1",decreased
same,SRRM2 and general organization of nuclear speckles,[3],affected
same,SRRM2 spots,[3],appeared to dissolve into the nucleoplasm
same,overall SRRM2 intensity,[3],slightly reduced

# Source: PMC10432564, “Pharmacological perturbation of the phase-separating protein SMNDC1” (Nature Communications, 2023)
